Structures can show the parent of a compound that is named as a salt. Some results are limits rather than exact numbers.

T1 sequence (P19156 2-1034 limits assumed): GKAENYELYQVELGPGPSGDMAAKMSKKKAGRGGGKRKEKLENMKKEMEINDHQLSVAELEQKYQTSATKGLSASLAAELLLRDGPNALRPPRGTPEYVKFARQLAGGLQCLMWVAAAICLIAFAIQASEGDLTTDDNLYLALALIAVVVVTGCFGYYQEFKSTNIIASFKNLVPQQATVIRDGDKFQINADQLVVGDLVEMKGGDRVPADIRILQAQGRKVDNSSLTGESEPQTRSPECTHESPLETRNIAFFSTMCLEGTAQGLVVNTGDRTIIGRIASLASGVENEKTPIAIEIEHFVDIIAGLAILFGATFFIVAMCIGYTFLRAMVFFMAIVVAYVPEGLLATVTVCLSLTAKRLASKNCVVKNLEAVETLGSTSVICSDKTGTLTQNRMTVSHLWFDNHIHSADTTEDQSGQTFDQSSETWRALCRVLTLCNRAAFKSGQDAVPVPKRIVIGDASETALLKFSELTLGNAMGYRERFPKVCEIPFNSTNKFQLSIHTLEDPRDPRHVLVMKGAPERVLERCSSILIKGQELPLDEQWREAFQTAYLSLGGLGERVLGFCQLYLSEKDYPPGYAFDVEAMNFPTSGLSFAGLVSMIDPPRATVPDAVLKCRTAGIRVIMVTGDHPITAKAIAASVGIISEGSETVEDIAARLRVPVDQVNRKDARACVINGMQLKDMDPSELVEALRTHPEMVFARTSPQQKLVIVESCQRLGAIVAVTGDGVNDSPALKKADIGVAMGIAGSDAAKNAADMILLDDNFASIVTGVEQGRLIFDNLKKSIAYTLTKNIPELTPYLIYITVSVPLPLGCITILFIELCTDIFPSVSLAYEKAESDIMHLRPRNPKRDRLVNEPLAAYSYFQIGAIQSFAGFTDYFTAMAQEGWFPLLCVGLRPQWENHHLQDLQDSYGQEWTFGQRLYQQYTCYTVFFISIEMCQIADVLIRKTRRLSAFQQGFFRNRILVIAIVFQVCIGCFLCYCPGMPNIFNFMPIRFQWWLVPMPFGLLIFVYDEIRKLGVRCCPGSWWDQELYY
T1 sequence (P18434 whole entry partner): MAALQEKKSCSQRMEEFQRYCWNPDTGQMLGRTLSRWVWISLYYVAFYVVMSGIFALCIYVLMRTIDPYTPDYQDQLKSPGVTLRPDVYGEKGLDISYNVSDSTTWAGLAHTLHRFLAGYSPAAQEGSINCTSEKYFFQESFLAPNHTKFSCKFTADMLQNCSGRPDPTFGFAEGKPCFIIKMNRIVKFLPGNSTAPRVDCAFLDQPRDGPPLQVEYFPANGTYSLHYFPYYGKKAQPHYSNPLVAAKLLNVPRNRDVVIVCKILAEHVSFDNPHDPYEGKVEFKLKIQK

The first assay has as its target T1, Proton Pump (H^+,K^+-ATPase) (Sus scrofa, UniProt P19156).
T1 construct: gastric vesicles were isolated from porcine stomachs; from tissue; host or cells: porcine stomach (gastric vesicles)
The experiment in a line: Inhibitory activity on proton pump (H+,K+-ATPase) activity, porcine gastric vesicles, malachite green readout. In kind it is biochemical. To be noted: porcine gastric vesicles, pH 6.5, 8 mM KCl, 0.2 mM ATP. As to the method: Specifically, gastric vesicles were isolated from porcine stomachs, and the protein content of the vesicles was quantified using a BSA kit (Bio-Rad, 5000205). All reactions were performed in 96-well plates with a reaction volume of […] containing 100 ng of vesicles. 10 mM valinomycin and the test compound were added to reaction buffer (50 mM Tris-HEPES, 5 mM MgCl2, 8 mM KCl, pH 6.5) containing porcine gastric vesicles at various concentrations, and the mixture was incubated at 37°C for 30 minutes. DMSO or test compounds at different concentrations were added after diluting them to a final DMSO concentration of 0.1%. 0.2 mM adenosine triphosphate (ATP) was then added to the reaction buffer and incubated at 37°C for 20 minutes. The reaction was stopped with 0.2% Tween 20, followed by the addition of malachite green (Sigma Aldrich, MAK307) and incubation at room temperature for 30 minutes. The optical density (OD) value was measured at 620 nm using a microplate reader (Spectramax M5e, Molecular devices). The percent (%) inhibition was derived from the OD values of the control group and various concentrations of the test compounds. The IC50 of the test compounds was analyzed using nonlinear regression using the GraphPad Prism8 program using the % inhibition value at each concentration.
Consider `Cc1cccc(C)c1CNc1cc(NC(=O)[C@H]2CCN2)cn2c(C)c(C)nc12` [Example 36, (R)-N-(8-((2,6-dimethylbenzyl)amino)-2,3-dimethylimidazo[1,2-a]pyridin-6-yl)azetidine-2-carboxamide hydrochloride], for which the IC50 was in the range of 50 to 100 nM.
Consider `Cc1cccc(C)c1CNc1cc(NC(=O)NCCN)cn2c(C)c(C)nc12` [Example 37, 1-(2-aminoethyl)-3-(8-((2,6-dimethylbenzyl)amino)-2,3-dimethylimidazo[1,2-a]pyridin-6-yl)urea hydrochloride], for which the concentration for half-maximal inhibition (IC50) is 50 to 100 nM.
With `Cc1cccc(C)c1CNc1cc(NC(=O)CCC(=O)O)cn2c(C)c(C)nc12` [Example 38, 4-((8-((2,6-dimethylbenzyl)amino)-2,3-dimethylimidazo[1,2-a]pyridin-6-yl)amino)-4-oxobutanoic acid], the IC50 is above 500 nM.
Molecule `Cc1cccc(C)c1CNc1cc(NC(=O)CCOCCC(=O)O)cn2c(C)c(C)nc12` [Example 39] returned an IC50 above 500 nM.
Molecule `CCOC(=O)CCC(=O)Nc1cc(NCc2c(C)cccc2C)c2nc(C)c(C)n2c1` [Example 40, ethyl 4-((8-((2,6-dimethylbenzyl)amino)-2,3-dimethylimidazo[1,2-a]pyridin-6-yl)amino)-4-oxobutanoate] came in with an IC50 of 100 to 500 nM.
With `Cc1cccc(C)c1CNc1cc(NC(=O)CCOCCC(=O)OC(C)(C)C)cn2c(C)c(C)nc12` [Example 41], the IC50 is above 500 nM.
For the molecule `Cc1cccc(C)c1CNc1cc(NC(=O)N(C)C)cn2c(C)c(C)nc12` [Example 43, 3-(8-((2,6-dimethylbenzyl)amino)-2,3-dimethylimidazo[1,2-a]pyridin-6-yl)-1,1-dimethylurea hydrochloride], the concentration for half-maximal inhibition (IC50) is below 50 nM.
Turning to `CNC(=O)Nc1cc(NCc2c(C)cc(F)cc2C)c2nc(C)c(C)n2c1` [Example 44, 1-(8-((4-fluoro-2,6-dimethylbenzyl)amino)-2,3-dimethylimidazo[1,2-a]pyridin-6-yl)-3-methylurea hydrochloride], the 50% inhibitory concentration (IC50) is below 50 nM.
On to `COC(=O)CNC(=O)Nc1cc(NCc2c(C)cccc2C)c2nc(C)c(C)n2c1` [Example 46, hydrochloride], for which the IC50 lay in the range of 50 to 100 nM.
On the same count and under the same terms, the same measure for `CNC(=O)CNC(=O)Nc1cc(NCc2c(C)cccc2C)c2nc(C)c(C)n2c1` [Example 47, 2-(3-(8-((2,6-dimethylbenzyl)amino)-2,3-dimethylimidazo[1,2-a]pyridin-6-yl)ureido)-N-methylacetamide hydrochloride]: 50 to 100 nM; for `Cc1cccc(C)c1CNc1cc(NC(=O)NCC(=O)N(C)C)cn2c(C)c(C)nc12` [Example 48, 2-(3-(8-((2,6-dimethylbenzyl)amino)-2,3-dimethylimidazo[1,2-a]pyridin-6-yl)ureido)-N,N-dimethylacetamide hydrochloride]: 50 to 100 nM.
Molecule `Cc1cc(F)cc(C)c1CNc1cc(NC(=O)N(C)C)cn2c(C)c(C)nc12` [Example 49, 3-(8-((4-fluoro-2,6-dimethylbenzyl)amino)-2,3-dimethylimidazo[1,2-a]pyridin-6-yl)-1,1-dimethylurea hydrochloride] registered an IC50 below 50 nM.
Molecule `Cc1cc(F)cc(C)c1CNc1cc(NC(=O)NC2CC2)cn2c(C)c(C)nc12` [Example 50, 1-cyclopropyl-3-(8-((4-fluoro-2,6-dimethylbenzyl)amino)-2,3-dimethylimidazo[1,2-a]pyridin-6-yl)urea hydrochloride] showed an IC50 below 50 nM.
Molecule `Cc1cc(F)cc(C)c1CNc1cc(NC(=O)N2CCC2)cn2c(C)c(C)nc12` [Example 51, N-(8-((4-fluoro-2,6-dimethylbenzyl)amino)-2,3-dimethylimidazo[1,2-a]pyridin-6-yl)azetidine-1-carboxamide citrate] yielded an IC50 below 50 nM.
Turning to `CC(=O)NCC(=O)Nc1cc(NCc2c(C)cccc2C)c2nc(C)c(C)n2c1` [Example 52, 2-acetamido-N-(8-((2,6-dimethylbenzyl)amino)-2,3-dimethylimidazo[1,2-a]pyridin-6-yl)acetamide], the IC50 was 100 to 500 nM.
Still for that read-out and setting: the same measure for `Cc1cccc(C)c1CNc1cc(NC(=O)CN(C)C)cn2c(C)c(C)nc12` [Example 53, 2-(dimethylamino)-N-(8-((2,6-dimethylbenzyl)amino)-2,3-dimethylimidazo[1,2-a]pyridin-6-yl)acetamide]: 100 to 500 nM; for `CCCNC(=O)Nc1cc(NCc2c(C)cccc2C)c2nc(C)c(C)n2c1` [Example 54]: 100 to 500 nM.
Regarding `Cc1cccc(C)c1CNc1cc(NC(=O)CNC(=O)C(C)(C)C)cn2c(C)c(C)nc12` [Example 55, N-(2-((8-((2,6-dimethylbenzyl)amino)-2,3-dimethylimidazo[1,2-a]pyridin-6-yl)amino)-2-oxoethyl)pivalamide], the IC50 was above 500 nM.
Same read-out and setting: the same measure for `Cc1cccc(C)c1CNc1cc(NC(=O)CNC(=O)C(F)F)cn2c(C)c(C)nc12` [Example 56, N-(2-((8-((2,6-dimethylbenzyl)amino)-2,3-dimethylimidazo[1,2-a]pyridin-6-yl)amino)-2-oxoethyl)-2,2-difluoroacetamide]: above 500 nM; for `Cc1cccc(C)c1CNc1cc(NC(=O)CNC(=O)C(C)(F)F)cn2c(C)c(C)nc12` [Example 57, N-(2-((8-((2,6-dimethylbenzyl)amino)-2,3-dimethylimidazo[1,2-a]pyridin-6-yl)amino)-2-oxoethyl)-2,2-difluoropropanamide]: 100 to 500 nM.
The same measure, in the same setting: the same measure for `Cc1cccc(C)c1CNc1cc(NC(=O)CNC(=O)C2CC(O)C2)cn2c(C)c(C)nc12` (stereo not drawn) [Example 58, N-(2-((8-((2,6-dimethylbenzyl)amino)-2,3-dimethylimidazo[1,2-a]pyridin-6-yl)amino)-2-oxoethyl)-3-hydroxycyclobutane-1-carboxamide]: 100 to 500 nM; for `Cc1cccc(C)c1CNc1cc(NC(=O)CNC(=O)C2CC(F)C2)cn2c(C)c(C)nc12` (stereo not drawn) [Example 59, N-(2-((8-((2,6-dimethylbenzyl)amino)-2,3-dimethylimidazo[1,2-a]pyridin-6-yl)amino)-2-oxoethyl)-3-fluorocyclobutane-1-carboxamide]: 100 to 500 nM.
In turn, `Cc1cccc(C)c1CNc1cc(NC(=O)N2CCOCC2)cn2c(C)c(C)nc12` [Example 61, N-(8-((2,6-dimethylbenzyl)amino)-2,3-dimethylimidazo[1,2-a]pyridin-6-yl)morpholine-4-carboxamide citrate] returned an IC50 of 50 to 100 nM.
Regarding `CC(=O)OCCNC(=O)Nc1cc(NCc2c(C)cccc2C)c2nc(C)c(C)n2c1` [Example 62, 2-(3-(8-((2,6-dimethylbenzyl)amino)-2,3-dimethylimidazo[1,2-a]pyridin-6-yl)ureido)ethyl acetate hydrochloride], the IC50 lay in the range of 100 to 500 nM.
`Cc1cc(F)cc(C)c1CNc1cc(NC(=O)[C@H](C)N)cn2c(C)c(C)nc12` [Example 63, (S)-2-amino-N-(8-((4-fluoro-2,6-dimethylbenzyl)amino)-2,3-dimethylimidazo[1,2-a]pyridin-6-yl)propanamide hydrochloride] came in with an IC50 of 50 to 100 nM.
The molecule `Cc1cc(F)cc(C)c1CNc1cc(NC(=O)CN)cn2c(C)c(C)nc12.Cl` [Example 64, 2-amino-N-(8-((4-fluoro-2,6-dimethylbenzyl)amino)-2,3-dimethylimidazo[1,2-a]pyridin-6-yl)acetamide hydrochloride] came in with a 50% inhibitory concentration (IC50) below 50 nM.
`Cc1cc(F)cc(C)c1CNc1cc(NC(=O)[C@@H]2CCN2)cn2c(C)c(C)nc12` [Example 65, (S)-N-(8-((4-fluoro-2,6-dimethylbenzyl)amino)-2,3-dimethylimidazo[1,2-a]pyridin-6-yl)azetidine-2-carboxamide hydrochloride] gave an IC50 of 50 to 100 nM.
Consider `Cc1cccc(C)c1CNc1cc(NC(=O)N2CC3(CCC3)C2)cn2c(C)c(C)nc12` [Example 66, N-(8-((2,6-dimethylbenzyl)amino)-2,3-dimethylimidazo[1,2-a]pyridin-6-yl)-2-azaspiro[3.3]heptane-2-carboxamide citrate], for which the IC50 lay in the range of 100 to 500 nM.
Molecule `Cc1cccc(C)c1CNc1cc(NC(=O)N2Cc3ccccc3C2)cn2c(C)c(C)nc12` [Example 67, N-(8-((2,6-dimethylbenzyl)amino)-2,3-dimethylimidazo[1,2-a]pyridin-6-yl)isoindoline-2-carboxamide] returned an IC50 of 50 to 100 nM.
As for `Cc1cccc(C)c1CNc1cc(NC(=O)N2Cc3ccncc3C2)cn2c(C)c(C)nc12` [Example 68, N-(8-((2,6-dimethylbenzyl)amino)-2,3-dimethylimidazo[1,2-a]pyridin-6-yl)-1,3-dihydro-2H-pyrrolo[3,4-c]pyridine-2-carboxamide], the half-maximal inhibitory concentration (IC50) fell in the range of 50 to 100 nM.
With `Cc1cccc(C)c1CNc1cc(NC(=O)N2CC(=O)C2)cn2c(C)c(C)nc12` [Example 69, N-(8-((2,6-dimethylbenzyl)amino)-2,3-dimethylimidazo[1,2-a]pyridin-6-yl)-3-oxoazetidine-1-carboxamide citrate], the IC50 is below 50 nM.
For the molecule `Cc1cccc(C)c1CNc1cc(NC(=O)NCC(=O)O)cn2c(C)c(C)nc12` [Example 70, ((8-((2,6-dimethylbenzyl)amino)-2,3-dimethylimidazo[1,2-a]pyridin-6-yl)carbamoyl)glycine hydrochloride], the IC50 was 100 to 500 nM.

Still in this assay, the particulars now being: result in words.
In the case of `Cc1cc(F)cc(C)c1CNc1cc(NC(=O)CN)cn2c(C)c(C)nc12.Cl` [Example 64, 2-amino-N-(8-((4-fluoro-2,6-dimethylbenzyl)amino)-2,3-dimethylimidazo[1,2-a]pyridin-6-yl)acetamide hydrochloride], the “inhibitory activity against proton pump activity” value was “excellent inhibitory properties”.

(Values after patent EP4778924A1 (Huons Co., Ltd., priority 2023, dated 2025).)
